US20240150342A1, “ESTROGEN-RELATED RECEPTOR ALPHA MODULATORS” (LEAD PHARMA HOLDING B.V., priority 2019, published 2024)

Key:
[1] = target: T1, ERRα ligand binding domain (ERRα-LBD) (Homo sapiens, UniProt P11474); assay: ERRα AlphaScreen Assay; format: biochemical; details: disruption of binding of ERRα-LBD protein to biotin-PGC1α-3 co-activator peptide; read-out: mean pIC50 (converted)
T1 construct: made in house; host or cells: E. coli
T1 sequence (P11474 193-421 limits assumed): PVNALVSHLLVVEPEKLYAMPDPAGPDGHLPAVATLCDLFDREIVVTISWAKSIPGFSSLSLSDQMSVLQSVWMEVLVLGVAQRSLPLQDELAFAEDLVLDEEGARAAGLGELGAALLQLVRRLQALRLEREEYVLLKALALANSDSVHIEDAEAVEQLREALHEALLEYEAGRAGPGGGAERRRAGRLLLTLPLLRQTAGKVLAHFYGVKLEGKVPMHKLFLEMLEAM
Source text: This assay was based on the knowledge that nuclear receptors interact with cofactors in a ligand dependent matter. The sites of interaction have been mapped to LXXLL motifs that are present in the co-activator sequences. Short peptide sequences that contain the LXXLL motif mimic the behavior of full length co-activators.
The ERRα AlphaScreen Assay described here relies on the interaction of the co-activator peptide with purified bacterial- expressed ERRα ligand binding domain (ERRα-LBD); upon ligand binding, the ERRα protein can undergo a conformational change resulting in a loss of co-activator binding.
Compounds of the present invention were tested for their ability to disrupt binding of ERRα-LBD protein to co-activator peptide using AlphaScreen® Technology (Perkin Elmer). ERRα-LBD protein was expressed in E. coli as a 6×His Small Ubiquitin-like Modifier (SUMO) fusion. Bacterial expressed 6His-SUMO-ERRα-LBD protein was purified using affinity chromatography. All experiments were performed at room temperature in 384-well white non-binding plates (Greiner) using 50 mM Tris-HCl pH 7.5, 100 mM NaCl, 0.1% Pluronic F-127, 0.05% BSA and 5 mM TCEP as the buffer. Final DMSO concentration was 1% in the assay. Compounds were assayed in triplicate and: incubated with 0.81 nM ERRα-LBD protein and 10 μg/mL streptavidin donor beads and 10 μg/mL Ni-chelate acceptor beads for 1 hour at room temperature; followed by a 2-hour incubation with 15 nM biotin-PGC1α-3 peptide (QRRPCSELLKYLTTNDDPP) corresponding to amino acids 202 to 220.
The AlphaScreen signal was measured using an Envision Xcite plate reader (Perkin Elmer). Data was normalized, and curve fitting analysis was performed in GraphPad Prism 7 using a four-parameter dose-response fit.

full length ERRα = target: T2, full length ERRα (Homo sapiens, UniProt P11474); assay: Full Length ERRα Reporter Gene Assay; format: cell-based; details: SK-BR-3 cells, ERRα-RE luciferase reporter, overnight incubation; read-out: mean pIC50 (converted)
T2 construct: an over-expression construct coding full length ERRα; expressed in transfected cells; host or cells: SK-BR-3 cells, transient co-transfection of pLP2124 (pcDNA3.1/Hygro(+) background) and reporter pLP2175
T2 sequence (P11474 1-423): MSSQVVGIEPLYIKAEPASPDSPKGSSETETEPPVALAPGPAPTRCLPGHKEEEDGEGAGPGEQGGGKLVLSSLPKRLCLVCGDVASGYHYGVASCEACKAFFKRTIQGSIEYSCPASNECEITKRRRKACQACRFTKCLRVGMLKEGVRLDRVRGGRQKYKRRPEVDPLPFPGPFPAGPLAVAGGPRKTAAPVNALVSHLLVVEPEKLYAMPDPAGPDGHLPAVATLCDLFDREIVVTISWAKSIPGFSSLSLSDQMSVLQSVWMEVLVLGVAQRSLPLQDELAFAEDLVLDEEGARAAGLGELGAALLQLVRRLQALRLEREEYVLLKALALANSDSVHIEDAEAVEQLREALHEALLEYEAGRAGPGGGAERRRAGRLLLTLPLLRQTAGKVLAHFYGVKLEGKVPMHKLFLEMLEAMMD
Source text: A method was established to quantitatively screen the potency of compounds with inverse agonistic activity on the nuclear receptor ERRα of the human species. The assay allows intra-cellular screening of ERRα inverse agonists in SK-BR-3 cells using an over-expression construct coding full length ERRα and a reporter construct containing an ERRα Response Element (RE) and a luciferase gene for read out. The activity is expressed in logIC50 values and can be used to determine SAR of compound families or to de-select compounds.
In this assay, reporter cells are obtained by transient co-transfection of two constructs in SK-BR-3 cells using standard transfection techniques. The first construct contains a response element of the nuclear receptor ERRα (Plasmid pLP2175, Reporter construct ERRα-RE/luc2P, cloned variant of ERRα_v2_synthRE, Switchgear Genomics, Catalog Number S900089). This sequence drives the transcription of the luciferase reporter gene in response to binding of an ERRα protein encoded by the second construct (Plasmid pLP2124: full length ERRα expression construct using pcDNA3.1/Hygro(+) as background, Invitrogen Catalog Number V87020).
The day after transfection, cells were plated into 96 well plates, the test compound was added and the plates were incubated overnight. Subsequently, the firefly luciferase activity was quantified using luciferase detection reagent and luminescence readout.
Transfection is performed on pre-seeded SK-BR-3 cells in a T175 flask. One transfected T175 flask is sufficient for seeding 3 to 4 MW96 plates the next day, depending on the confluency of the transfected cells.
Two different media are used in this protocol for cell treatment: 1) Culture medium, i.e. McCoy's 5a with phenol red (BioWhittaker Supplier Number 12-688F), 10% FBS and 1× Penstrep.; and, 2) Assay medium, i.e. McCoy's 5a Medium phenol red free (HyClone Product Code SH30270.01) with 2% Charcoal Stripped FBS and 1× Penstrep. Compound dilutions are prepared in assay medium.
Cells are seeded at least 2 days in advance to allow the cells to adhere well to flask before transfection. Cells should be 50-80% confluent at the day of transfection.
SKBR3 cells were transfected with the transcriptional reporter construct pLP2175 and the ERRα expression construct pLP2124 (as described above).
68 μL of Lipofectamine LTX transfection reagent (Invitrogen Catalog Number 15338-100) was added dropwise to 8.9 ml Opti-MEM I Reduced Serum Medium (Gibco Catalog Number 51985-026) and incubated at room temperature for 5 to 20 minutes. 8.9 ml of this reagent mixture was added to 22 μg pLP2175+22 μg pLP2124 (ratio 1:1 and total volume 10 ml), and incubated at room temperature for 25 minutes.
10 minutes before adding the transfection mix to SKBR3 cells in a T175 flask, the culture medium was refreshed with 20 mL culture medium. Subsequently, the 10 mL DNA-Opti-MEM-Lipofectamine mixture was gently added to the cells, followed by overnight (16-24 hours) incubation at 37° C. and 5% CO2.
To harvest SKBR3 cells from a T175 flask, first the medium was removed. Subsequently, cells were washed with Phosphate Buffered Saline (PBS) (Lonza), after which the PBS was removed. To dissociate the cells, 2 ml of TrypLE Express (I nvitrogen) was added to the flask, followed by incubation at 37° C. for 5 minutes. The flask was tapped until cells were detached from the bottom. Cells were collected in 8 mL of culture medium (McCoy's 5a, 10% FBS, penstrep), to achieve a single cell suspension. After cell count, cells were spun down for 5 minutes at 300 g. Next cell pellets were re-suspended to 25000 cells/80 μl assay medium (McCoy's 5a phenol red free, 2% charcoal stripped FBS, penstrep).
For compound screening, the cells were harvested (as described above). 80 μL of cell suspension (25,000 cells) was plated per well into a white, flat bottom, tissue culture treated, 96 well screening plates (Greiner). […]

With `COc1cc(C2CC(=O)Nc3n[nH]cc32)ccc1Oc1cc(C(F)(F)F)cc(C(F)(F)F)c1` (racemic) [Example 43, 4-{4-[3,5-bis(trifluoromethyl)phenoxy]-3-methoxyphenyl}-2H,4H,5H,6H,7H-pyrazolo[3,4-b]pyridin-6-one] the IC50 [1] was 10 to 100 nM and the IC50 (full length ERRα) was ≤ 316 nM.

With `COc1cc(C2CC(=O)Nc3n[nH]cc32)ccc1Oc1cc(C)cc(C(F)(F)F)c1` (single isomer, unassigned; (-)) [Example 84, (−)-4-{3-methoxy-4-[3-methyl-5-(trifluoromethyl)phenoxy]phenyl}-2H,4H,5H,6H,7H-pyrazolo[3,4-b]pyridin-6-one] the IC50 [1] was ≤ 10 nM and the IC50 (full length ERRα) was ≤ 316 nM.

For `COc1cc(C2CC(=O)Nc3n[nH]cc32)ccc1Oc1cc(C(F)F)cc(C(F)(F)F)c1` (single isomer, unassigned; (-)) [Example 86, (−)-4-{4-[3-(difluoromethyl)-5-(trifluoromethyl)phenoxy]-3-methoxyphenyl}-2H, 4H,5H,6H,7H-pyrazolo[3,4-b]pyridin-6-one], the IC50 [1] was ≤ 10 nM and the IC50 (full length ERRα) was ≤ 316 nM.

`COc1cc(C2CC(=O)Nc3n[nH]cc32)ccc1Oc1ccccc1C(C)(C)C` (centres unmarked) [Example 10, 4-[4-(2-tert-butylphenoxy)-3-methoxyphenyl]-2H,4H,5H,6H,7H-pyrazolo[3,4-b]pyridin-6-one] was tested, and the IC50 [1] was 10 to 100 nM and the IC50 (full length ERRα) was ≤ 316 nM.

For `COc1cc(C2CC(=O)Nc3n[nH]cc32)ccc1Oc1ccc(O)c(C(C)(C)C)c1` (centres unmarked) [Example 29, 4-[4-(3-tert-butyl-4-hydroxyphenoxy)-3-methoxyphenyl]-2H,4H,5H,6H,7H-pyrazolo[3,4-b]pyridin-6-one], the IC50 [1] was ≤ 10 nM and the IC50 (full length ERRα) was ≤ 316 nM.

`CCc1ccc(Oc2ccc(C3CC(=O)Nc4n[nH]cc43)cc2OC)c(C(C)(C)C)c1` (centres unmarked) [Example 32, 4-[4-(2-tert-butyl-4-ethylphenoxy)-3-methoxyphenyl]-2H,4H,5H,6H,7H-pyrazolo[3,4-b]pyridin-6-one] was tested, and the IC50 [1] was ≤ 10 nM and the IC50 (full length ERRα) was ≤ 316 nM.

`COc1cc(C2CC(=O)Nc3n[nH]cc32)ccc1Oc1ccc(Br)cc1C(C)(C)C` (centres unmarked) [Example 33, 4-[4-(4-bromo-2-tert-butylphenoxy)-3-methoxyphenyl]-2H,4H,5H,6H,7H-pyrazolo[3,4-b]pyridin-6-one] was tested, and the IC50 [1] was ≤ 10 nM and the IC50 (full length ERRα) was ≤ 316 nM.

In the case of `COc1cc(C2CC(=O)Nc3n[nH]cc32)ccc1Oc1ccc(C)cc1C(C)(C)C` (centres unmarked) [Example 34, 4-[4-(2-tert-butyl-4-methylphenoxy)-3-methoxyphenyl]-2H,4H,5H,6H,7H-pyrazolo[3,4-b]pyridin-6-one], the IC50 [1] is reported as ≤ 10 nM and the IC50 (full length ERRα) is reported as ≤ 316 nM.

With `COC(=O)c1ccc(Oc2ccc(C3CC(=O)Nc4n[nH]cc43)cc2OC)c(C(C)(C)C)c1` (centres unmarked) [Example 35, methyl 3-tert-butyl-4-(2-methoxy-4-{6-oxo-2H,4H,5H,6H,7H-pyrazolo[3,4-b]pyridin-4-yl}phenoxy)benzoate] the IC50 [1] was ≤ 10 nM and the IC50 (full length ERRα) was ≤ 316 nM.

With `COc1cc(C2CC(=O)Nc3n[nH]cc32)ccc1Oc1ccc(C(C)(C)C)cc1C(C)(C)C` (centres unmarked) [Example 37, 4-[4-(2,4-di-tert-butylphenoxy)-3-methoxyphenyl]-2H,4H,5H,6H,7H-pyrazolo[3,4-b]pyridin-6-one] the IC50 [1] was ≤ 10 nM and the IC50 (full length ERRα) was ≤ 316 nM.

In the case of `COc1cc(Oc2ccc(C3CC(=O)Nc4n[nH]cc43)cc2OC)cc(C(F)(F)F)c1` (centres unmarked) [Example 38, 4-{3-methoxy-4-[3-methoxy-5-(trifluoromethyl)phenoxy]phenyl}-2H,4H,5H,6H,7H-pyrazolo[3,4-b]pyridin-6-one], the IC50 [1] is reported as ≤ 10 nM and the IC50 (full length ERRα) is reported as ≤ 316 nM.

In the case of `COc1cc(C2CC(=O)Nc3n[nH]cc32)ccc1Oc1ccc(C#N)cc1C(C)(C)C` (centres unmarked) [Example 39, 3-tert-butyl-4-(2-methoxy-4-{6-oxo-2H,4H,5H,6H,7H-pyrazolo[3,4-b]pyridin-4-yl}phenoxy)benzonitrile], the IC50 [1] is reported as ≤ 10 nM and the IC50 (full length ERRα) is reported as ≤ 316 nM.

`COc1cc(C2CC(=O)Nc3n[nH]cc32)ccc1Oc1ccccc1S(F)(F)(F)(F)F` (centres unmarked) [Example 40, 4-{3-methoxy-4-[2-(pentafluoro-λ^6-sulfanyl)phenoxy]phenyl}-2H,4H,5H,6H,7H-pyrazolo[3,4-b]pyridin-6-one] was tested, and the IC50 [1] was 10 to 100 nM and the IC50 (full length ERRα) was ≤ 316 nM.

With `COC(=O)c1cc(Oc2ccc(C3CC(=O)Nc4n[nH]cc43)cc2OC)cc(C(F)(F)F)c1` (centres unmarked) [Example 41, methyl 3-(2-methoxy-4-{6-oxo-2H,4H,5H,6H,7H-pyrazolo[3,4-b]pyridin-4-yl}phenoxy)-5-(trifluoromethyl)benzoate] the IC50 [1] was 10 to 100 nM and the IC50 (full length ERRα) was ≤ 316 nM.

In the case of `COc1cc(C2CC(=O)Nc3n[nH]cc32)ccc1Oc1cc(C)cc(C(F)(F)F)c1` (centres unmarked) [Example 63, 4-{3-methoxy-4-[3-methyl-5-(trifluoromethyl)phenoxy]phenyl}-2H,4H,5H,6H,7H-pyrazolo[3,4-b]pyridin-6-one], the IC50 [1] is reported as ≤ 10 nM and the IC50 (full length ERRα) is reported as ≤ 316 nM.

`CCc1ccc(Oc2ccc(-c3cc(=O)[nH]c4n[nH]cc34)cc2OC)c(C(C)(C)C)c1` [Example 67, 4-[4-(2-tert-butyl-4-ethylphenoxy)-3-methoxyphenyl]-2H,6H,7H-pyrazolo[3,4-b]pyridin-6-one] was tested, and the IC50 [1] was ≤ 10 nM and the IC50 (full length ERRα) was ≤ 316 nM.
